Results as given in publication PMC11249626, “Fluorophore-Labeled Pyrrolones Targeting the Intracellular Allosteric Binding Site of the Chemokine Receptor CCR1” (ACS Pharmacology & Translational Science, 2024).
pIC50: −log10 of the molar value. Where two headings read alike, the source gives them in different places.

Legend:
Type in all cases: cell-based
[1] = biological target: T1, human chemokine receptor CCR1 (Homo sapiens, UniProt P32246); assay: Cellular NanoBiT miniGi recruitment assay; conditions: in the presence of CCL5 (3 nM)
T1 construct: expressed in transfected cells; host or cells: HEK293T, transient
T1 sequence (P32246 1-355): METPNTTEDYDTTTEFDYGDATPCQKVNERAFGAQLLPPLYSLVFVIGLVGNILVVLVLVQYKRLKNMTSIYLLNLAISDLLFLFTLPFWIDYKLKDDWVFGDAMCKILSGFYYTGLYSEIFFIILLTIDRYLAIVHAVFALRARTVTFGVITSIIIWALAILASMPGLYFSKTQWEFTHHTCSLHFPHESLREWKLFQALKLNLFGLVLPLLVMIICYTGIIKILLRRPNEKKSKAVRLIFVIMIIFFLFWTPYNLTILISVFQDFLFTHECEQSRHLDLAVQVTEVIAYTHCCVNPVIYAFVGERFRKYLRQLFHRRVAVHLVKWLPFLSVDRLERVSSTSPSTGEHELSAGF
Procedure: Technologies) for 20 min.
Cellular NanoBiT miniGi recruitment assay s: Chemokine-induced Gi recruitment to the chemokine receptor CCR1 was monitored using a nanoluciferase complementation -based assay (NanoBiT, Promega). 20 5 x 10^6 HEK293T cells were plated in 10 cm dishes and cultured for 24 h before transfection with vectors encoding for the human chemokine receptor CCR1 C-terminally fused with SmBiT and miniGi (mG, engineered GTPase domain of Gα subunit) N-terminally fused with LgBiT. 24 h after transfection cells were harvested, distributed into white 96 -well plates (5 × 10^4 cells per well) and incubated for 1 h at 37 °C with compound 23 at concentrations ranging from 10 nM to 100 µM. The endogenous chemokine ligand CCL5 (3 nM, for CCR1) was then added, and luminescence generated upon nanoluciferase complementation in the presence of coelenterazine H was measured with a Mithras LB940 luminometer (Berthold Technologies) for 20 min. […]
(§1) Finally, the top 5% of the identified hits were subsequently docked to a homology model of CCR1 (vide infra). After visual examination of the obtained binding modes 24 hit compounds were identified for further investigation .
(§2) Molecular docking: For the docking studies in the course of our virtual screening campaign, the CCR1 protein was […]
(§3) 27, 28 CCR1 structure was optimized using the Quickprep and structure preparation wizard in MOE 24 using CHARMM27 forcefield. The protein was saved in mol2 format and loaded in GOLD.25, 26 The amino acids defining the IABS were listed in a text file to define the docking cavity. 50 GA runs were performed for docking CCR2-RA-[R] (4-[R]) and SN_12 (43), with the generated solutions clustered based on their RMSD with the threshold set to 0.75 Å using the complete linkage method. Docking runs were performed using ChemScore. […]

[2] = biological target: T1, human chemokine receptor CCR1; assay: Cellular NanoBiT β-arrestin recruitment assay
Procedure: (§4) CCR1 and CCR2 was monitored using a nanoluciferase complementation -based assay (NanoBiT, Promega). 17-19 5 x 10^6 HEK293T cells were plated in 10 cm dishes and cultured for 24 h before transfection with vectors encoding for the human chemokine receptor CCR1 or CCR2 C-terminally fused with SmBiT and β-arrestin 2 N-terminally fused with LgBiT. 24 h after transfection cells were harvested, distributed into white 96-well plates (5 × 10^4 cells per well) and incubated for 1 h at 37 °C with compound 23 at concentrations ranging from 10 nM to 10 µM. The endogenous chemokine ligand CCL5 (3 nM, for CCR1) or CCL2 (10 nM, for CCR2) was then added, and luminescence generated upon nanoluciferase complementation in the presence of coelenterazine H was measured with a Mithras LB940 luminometer (Berthold Technologies) for 20 min. […]
as §1, §2
27, 28 CCR1 structure was optimized using the Quickprep and structure preparation wizard in MOE 24 using CHARMM27 forcefield. The protein was saved in mol2 format and loaded in GOLD.25, 26 The amino acids defining the IABS were listed in a text file to define the docking cavity. 50 GA runs were performed for docking CCR2-RA-[R] (4-[R]) and SN_12 (43), with the generated solutions clustered based on their RMSD with the threshold set to 0.75 Å using the complete linkage method. Docking runs were performed using ChemScore. Flexibility of amino acids Lys63ICL1, Arg1313.50, Leu2406.36 and Arg3078.49 was taken in consideration in the docking runs, with conformational sampling of their side chains being done by the rotamer libraries implemented in GOLD.25, 26 For the docking studies with our ligand-linker conjugates (Figure S1), molecular ligand structures were geometry optimized as neutral molecules by means of Avogadro (Version 1.2.0)29 using the Universal Force Field (UFF) and the Steepest Decent Algorithm until convergence (ΔE = 0).
CCR113 was used for docking. The compounds were docked by means of AutoDock Vina 1.1.2.30, 31 An exhaustiveness value of 8 and a search space of 22 x 22 x 22 Å³ was applied around the unliganded intracellular allosteric binding site of CCR1. Twenty docking poses were generated for each ligand and inspected manually and according to the docking score.

[3] = biological target: T2, human chemokine receptor CCR2 (Homo sapiens, UniProt P41597); assay: Cellular NanoBiT β-arrestin recruitment assay; conditions: in the presence of CCL2 (10 nM), HEK293T cells
T2 construct: expressed in transfected cells; host or cells: HEK293T, transient
T2 sequence (P41597 whole entry): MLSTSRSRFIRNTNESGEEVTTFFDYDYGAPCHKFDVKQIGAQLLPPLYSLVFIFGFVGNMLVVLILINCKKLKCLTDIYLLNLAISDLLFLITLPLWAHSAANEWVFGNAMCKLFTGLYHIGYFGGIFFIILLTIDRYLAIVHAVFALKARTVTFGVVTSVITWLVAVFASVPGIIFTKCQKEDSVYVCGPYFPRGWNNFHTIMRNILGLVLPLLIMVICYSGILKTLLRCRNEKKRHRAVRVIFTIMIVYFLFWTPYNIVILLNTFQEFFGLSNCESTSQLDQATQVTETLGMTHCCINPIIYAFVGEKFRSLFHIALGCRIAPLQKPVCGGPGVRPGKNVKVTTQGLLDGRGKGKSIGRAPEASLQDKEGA
Procedure: (PerkinElmer, Groningen, NL).
as §4, with “Cellular NanoBiT β-arrestin recruitment assays: Chemokine-induced β-arrestin-2 recruitment to chemokine receptors CCR1 and” for “CCR1 and”
as §1, §2, §3

pIC50 ([1]; read-out: IC50, miniGi recruitment): 4.16
IC50 ([1]; read-out: pIC50, miniGi recruitment (converted)): 67.6 µM
pIC50 ([2]; absence of agonist, read-out: IC50 (CCR1), basal β-arrestin recruitment): 5.22
IC50 ([2]; absence of agonist, read-out: pIC50(CCR1), basal β-arrestin recruitment (converted)): 6.17 µM
CCR1 over CCR2 selectivity, β-arrestin recruitment ([2]; cellular NanoBiT assays): > 10 fold
pIC50 ([2]; in the presence of CCL5 (3 nM), HEK293T cells, read-out: IC50 (CCR1), β-arrestin recruitment): 4.85
pIC50 ([3]; read-out: IC50 (CCR2), β-arrestin recruitment): 3.73
IC50 ([3]; read-out: pIC50(CCR2), β-arrestin recruitment (converted)): 195 µM
SMILES: O=C(C1=C(O)C(=O)N(CCc2ccc(O)cc2)C1c1ccc(F)cc1)c1ccccc1 (racemic) [compound 23]
